We go through 24 compounds from ChEMBL document CHEMBL1125688, “The synthesis and potassium channel blocking activity of some (4-methanesulfonamidophenoxy)propanolamines as potential class III antiarrhythmic agents” (1991).

For assay [1], the species on record is Cavia porcellus. Briefly: Compound was evaluated for the increase in duration or cardiac APD (action potential duration) at 90% repolarization, using isolated guinea pig ventricular myocytes at concentration of 33000 nM. It counts as functional, Heart, Ventricular myocyte.
The species named for assay [2] is Cavia porcellus. Briefly: Compound was evaluated for the increase in duration or cardiac APD (action potential duration) at 90% repolarization, using isolated guinea pig ventricular myocytes at concentration of 50000 nM. It counts as functional, Heart, Ventricular myocyte.
Assay [3] is filed under the species Cavia porcellus. Briefly: Compound was evaluated for the increase in duration or cardiac APD (action potential duration) at 90% repolarization, using isolated guinea pig ventricular myocytes at concentration of 75000 nM. It counts as functional, Heart, Ventricular myocyte.
Assay [4] is filed under the species Cavia porcellus. Put plainly: Compound was evaluated for the increase in duration or cardiac APD (action potential duration) at 90% repolarization, using isolated guinea pig ventricular myocytes at concentration of 10000 nM; no detectable change. In kind it is functional. Conditions: Heart, Ventricular myocyte.
The species entered for assay [5] is Cavia porcellus. Put plainly: Compound was evaluated for the increase in duration or cardiac APD (action potential duration) at 90% repolarization, using isolated guinea pig ventricular myocytes at concentration of 1 nM. It counts as functional, Heart, Ventricular myocyte.
The species entered for assay [6] is Cavia porcellus. Put plainly: Compound was evaluated for the increase in duration or cardiac APD (action potential duration) at 90% repolarization, using isolated guinea pig ventricular myocytes at concentration of 50 nM. In kind it is functional, Heart, Ventricular myocyte.
The species entered for assay [7] is Cavia porcellus. Put plainly: Compound was evaluated for the increase in duration or cardiac APD (action potential duration) at 90% repolarization, using isolated guinea pig ventricular myocytes at concentration of 10 nM. It counts as functional, Heart, Ventricular myocyte.
Assay [8] is filed under the species Cavia porcellus. Briefly: Compound was evaluated for the increase in duration or cardiac APD (action potential duration) at 90% repolarization, using isolated guinea pig ventricular myocytes at concentration of 1000 nM. It counts as functional, Heart, Ventricular myocyte. Set-up: unit not given here.
For assay [9], the species on record is Cavia porcellus. Put plainly: Compound was evaluated for the increase in duration or cardiac APD (action potential duration) at 90% repolarization, using isolated guinea pig ventricular myocytes at concentration of 100 nM. Set-up: unit not given here. In kind it is functional, Heart, Ventricular myocyte.
The species entered for assay [10] is Cavia porcellus. Put plainly: Compound was evaluated for the increase in duration or cardiac APD (action potential duration) at 90% repolarization, using isolated guinea pig ventricular myocytes at concentration of 10000 nM. Set-up: unit not given here. It counts as functional, Heart, Ventricular myocyte.
The species named for assay [11] is Cavia porcellus. Put plainly: Compound was evaluated for the increase in duration or cardiac APD (action potential duration) at 90% repolarization, using isolated guinea pig ventricular myocytes at concentration of 33000 nM; No detectable change. It counts as functional. The settings on record: Heart, Ventricular myocyte.
The species named for assay [12] is Cavia porcellus. Briefly: Compound was evaluated for the increase in duration or cardiac APD (action potential duration) at 90% repolarization, using isolated guinea pig ventricular myocytes at concentration of 10000 nM; No detectable change. The settings on record: Heart, Ventricular myocyte. In kind it is functional.
The species entered for assay [13] is Cavia porcellus. Put plainly: Compound was evaluated for the increase in duration or cardiac APD (action potential duration) at 90% repolarization, using isolated guinea pig ventricular myocytes at concentration of 250 nM. In kind it is functional, Heart, Ventricular myocyte.
The species named for assay [14] is Cavia porcellus. Put plainly: Compound was evaluated for the increase in duration or cardiac APD (action potential duration) at 90% repolarization, using isolated guinea pig ventricular myocytes at concentration of 33000 nM; no detectable change. It counts as functional. Conditions: Heart, Ventricular myocyte.
Assay [15] is filed under the species Cavia porcellus. Put plainly: Compound was evaluated for the increase in duration or cardiac APD (action potential duration) at 90% repolarization, using isolated guinea pig ventricular myocytes at concentration of 50000 nM; no detectable change. It counts as functional. Conditions: Heart, Ventricular myocyte.

With `CC(C)(C)NCC(O)COc1ccc(NS(C)(=O)=O)cc1` (stereo unspecified), the “Delta APD90” value in the assay listed under Cavia porcellus [1] is reported as 40; in the assay filed under Cavia porcellus [2], 75; in the assay listed under Cavia porcellus [3] it was 75. Consider `CC(C)NCC(O)COc1ccc(NS(C)(=O)=O)cc1` (stereo unspecified), for which the “Delta APD90” value is 33 in the assay filed under Cavia porcellus [1] and “No detectable change” in the assay listed under Cavia porcellus [4]. Regarding `CS(=O)(=O)Nc1ccc(OCC(O)CN2CCC(c3ccc(C(F)(F)F)cc3)CC2)cc1` (stereo unspecified), the “Delta APD90” value in the assay listed under Cavia porcellus [5] is reported as 40; in the assay listed under Cavia porcellus [6], 100; in the assay listed under Cavia porcellus [7], 100. Take `CS(=O)(=O)Nc1ccc(OCC(O)CN2CCC(c3ccccc3)CC2)cc1` (stereo unspecified): the results for the “Delta APD90” value in the assay listed under Cavia porcellus [8] and in the assay filed under Cavia porcellus [9] were 100 and 48, respectively. Turning to `CS(=O)(=O)Nc1ccc(OCC(O)CNCCc2ccccc2)cc1` (stereo unspecified), the “Delta APD90” value in the assay listed under Cavia porcellus [10] was determined as 80. Consider `COc1ccc(CCN(CC(O)COc2ccc(NS(C)(=O)=O)cc2)C(C)C)cc1OC` (stereo unspecified), for which the “Delta APD90” value in the assay listed under Cavia porcellus [8] is reported as 100; in the assay filed under Cavia porcellus [9], 65. `CN(C/C=C/c1ccccc1)CC(O)COc1ccc(NS(C)(=O)=O)cc1` (stereo unspecified): the “Delta APD90” value worked out at 100 in the assay listed under Cavia porcellus [9] and 50 in the assay filed under Cavia porcellus [6]. For the compound `CN(CCCc1ccccc1)CC(O)COc1ccc(NS(C)(=O)=O)cc1` (stereo unspecified), the “Delta APD90” value in the assay listed under Cavia porcellus [9] came out at 70.

As for `CS(=O)(=O)Nc1ccc(OCC(O)CN2CCc3ccccc3C2)cc1` (stereo unspecified), the “Delta APD90” value in the assay listed under Cavia porcellus [9] is 60.

For the compound `CC(C)NCC(O)COc1ccc(N(C)S(C)(=O)=O)cc1` (stereo unspecified), the “Delta APD90” value in the assay filed under Cavia porcellus [11] and in the assay filed under Cavia porcellus [12] was “No detectable change” in each case. With `CS(=O)(=O)Nc1ccc(OCC(O)CNCCc2ccc(Cl)cc2)cc1` (stereo unspecified), in the assay filed under Cavia porcellus [10], the “Delta APD90” value is 90. As for `CN(CCOc1ccc(NS(C)(=O)=O)cc1)CCc1ccc(NS(C)(=O)=O)cc1` [DOFETILIDE], the entries for the “Delta APD90” value in the assay listed under Cavia porcellus [9], in the assay listed under Cavia porcellus [13] and in the assay filed under Cavia porcellus [6] were 63, 100 and 23, respectively. Turning to `O=C(O)c1ccc(OCC(O)CN2CCC(c3ccccc3)CC2)cc1` (stereo unspecified), the “Delta APD90” value in the assay listed under Cavia porcellus [8] is on record as 36. Consider `COc1ccc(CCN(C)CC(O)COc2ccc(NS(C)(=O)=O)cc2)cc1OC` (stereo unspecified), for which the “Delta APD90” value stood at 100 in the assay filed under Cavia porcellus [8] and 40 in the assay listed under Cavia porcellus [9]. In the same order, the values of `CN(CCc1ccccc1)CC(O)COc1ccc(NS(C)(=O)=O)cc1` (stereo unspecified) are 88 and 48. Turning to `CS(=O)(=O)Nc1cccc(OCC(O)CN2CCC(c3ccccc3)CC2)c1` (stereo unspecified), in the assay filed under Cavia porcellus [8], the “Delta APD90” value was 48. With `COc1ccc(CCNCC(O)COc2ccc(NS(C)(=O)=O)cc2)cc1OC` (stereo unspecified), the “Delta APD90” value in the assay filed under Cavia porcellus [8] is recorded as 15; in the assay listed under Cavia porcellus [10] it was 80. `CC(C)NCC(O)c1ccc(NS(C)(=O)=O)cc1` (stereo unspecified) [SOTALOL]: the entries for the “Delta APD90” value in the assay filed under Cavia porcellus [2] and in the assay filed under Cavia porcellus [10] were 30 and 75, respectively.

As to `CN(CCc1ccc(Cl)c(Cl)c1)CC(O)COc1ccc(NS(C)(=O)=O)cc1` (stereo unspecified), the “Delta APD90” value stood at 20 in the assay filed under Cavia porcellus [5], 85 in the assay filed under Cavia porcellus [9] and 42 in the assay listed under Cavia porcellus [7]. Consider `CN(c1ccc(OCC(O)CNCCc2ccccc2)cc1)S(C)(=O)=O` (stereo unspecified), for which the “Delta APD90” value in the assay listed under Cavia porcellus [14] and in the assay filed under Cavia porcellus [4] was “No detectable change” throughout.

As to `CNCC(O)COc1ccc(NS(C)(=O)=O)cc1` (stereo unspecified), the “Delta APD90” value in the assay filed under Cavia porcellus [4] and in the assay listed under Cavia porcellus [15] was “No detectable change” throughout. For the compound `CS(=O)(=O)Nc1ccc(OCC(O)CN2CCN(c3ccccc3)CC2)cc1` (stereo unspecified), the “Delta APD90” value amounted to 78 in the assay listed under Cavia porcellus [8] and 100 in the assay listed under Cavia porcellus [10]. For `CCN(CC)CC(O)COc1ccc(NS(C)(=O)=O)cc1` (stereo unspecified) the same measures were 25 and 85. In the case of `CS(=O)(=O)Nc1ccc(OCC(O)CN2CCC(c3ccc(Cl)cc3)CC2)cc1` (stereo unspecified), the results for the “Delta APD90” value in the assay filed under Cavia porcellus [5] and in the assay listed under Cavia porcellus [7] were 50 and 100, respectively.
